In this test the test system is Y. pseudotuberculosis YP126 growth, MIC at 37 C. Put plainly: Y. pseudotuberculosis growth inhibition MIC, strain YP126, 22/37/40 C (AID 1505).

Each structure is given as a SMILES string. Values after ≈ are worked out from the molar mass of the structure shown. Active and inactive are the calls of the source. How the calls were made is not given here.

One may read the MIC as the lowest concentration found to suppress growth. Turning to `O=C(Nc1ccc2[nH]ccc2c1)c1cccs1`, the MIC is 400 µM (inactive) (≈ 96.9 µg/mL). The MIC (measured here: MIC at 22 C) was found to be 400 µM (≈ 96.9 µg/mL). Also, the MIC (measured here: MIC at 40 C) was 400 µM (≈ 96.9 µg/mL).
`Cc1ccc(CNC(=O)c2ccc([N+](=O)[O-])o2)cc1`: the MIC is 25 µM (≈ 6.51 µg/mL). This compound returned an MIC (measured here: MIC at 22 C) of 400 µM (≈ 104 µg/mL). The same compound gave an MIC (measured here: MIC at 40 C) of less than 12 µM.

Values taken from PubChem BioAssay AID1505 (Sanford-Burnham Center for Chemical Genomics, 2009).
